Experimental data as given in ChEMBL document CHEMBL1201862, “PubChem BioAssay data set” (2004).
Calls of active or inactive are those of the source.

Molecular target: T1, Heat shock factor protein 1 (Mus musculus, UniProt P38532)
T1 sequence (P38532 whole entry): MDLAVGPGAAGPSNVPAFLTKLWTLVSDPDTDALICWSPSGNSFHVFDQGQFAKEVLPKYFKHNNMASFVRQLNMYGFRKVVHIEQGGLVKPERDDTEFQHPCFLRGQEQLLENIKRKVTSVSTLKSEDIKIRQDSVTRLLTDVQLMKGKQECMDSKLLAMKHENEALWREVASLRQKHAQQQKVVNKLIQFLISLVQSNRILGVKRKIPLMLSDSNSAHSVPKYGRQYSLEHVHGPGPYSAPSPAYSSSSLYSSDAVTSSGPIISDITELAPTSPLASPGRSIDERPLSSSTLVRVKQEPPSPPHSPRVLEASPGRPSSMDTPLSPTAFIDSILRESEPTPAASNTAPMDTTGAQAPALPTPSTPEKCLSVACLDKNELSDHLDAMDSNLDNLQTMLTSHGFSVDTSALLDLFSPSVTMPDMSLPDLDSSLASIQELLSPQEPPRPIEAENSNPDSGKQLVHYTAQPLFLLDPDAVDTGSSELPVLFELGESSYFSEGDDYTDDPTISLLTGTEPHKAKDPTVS
Assay: HSF1 potentiators in luciferase reporter cells, confirmation, cell-based, NIH3T3, luminescence, dose retest (AID 435004);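 further: stress induced by proteasome inhibitor MG132 added 30 min after compound; luciferase reporter driven by HSF1 response element in NIH3T3 cells; actives raise luminescence as potentiators of the MG132 stress response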
Assay type: functional

Row | Compound | EC50
1 | O=C(COC(=O)c1ccc(S(=O)(=O)NCc2ccco2)cc1)Nc1ccccc1OC(F)F | > 260 µM (inactive)

Molecular target: FAD-linked sulfhydryl oxidase ALR (Homo sapiens, UniProt P55789)
Assay: inhibitors of human ALR sulfhydryl oxidase, dose response, biochemical, H2O2 detection, luminescence, cherry-pick (AID 493248)

Chain of FAD-linked sulfhydryl oxidase ALR (P55789 whole entry): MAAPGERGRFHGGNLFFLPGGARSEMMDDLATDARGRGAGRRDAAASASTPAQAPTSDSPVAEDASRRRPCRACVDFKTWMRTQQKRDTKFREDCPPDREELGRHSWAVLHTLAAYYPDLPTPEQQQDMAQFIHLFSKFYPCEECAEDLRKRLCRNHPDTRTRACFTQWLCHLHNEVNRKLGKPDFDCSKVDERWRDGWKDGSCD

Row | Compound | AC50
2 | Cn1c(S)nnc1CNS(=O)(=O)c1ccc(Br)cc1 | 4.95 µM (active)
3 | COc1ccc(CNC(=O)c2ccc3c(c2)N(C)CCS3)cc1 | 15.4 µM (active)
4 | COc1ccc(N2CCN(C(=O)c3ccccc3N(C)S(=O)(=O)c3ccccc3)CC2)cc1 | 8.08 µM (active)
5 | CC(NC(=O)c1ccc(N(C)C)cc1)C(c1cccs1)N1CCN(C)CC1 (stereo unspecified) | 1.24 µM (active)
6 | CCc1n[nH]c(C(=O)N2CCCC(Nc3ccc(C(C)C)cc3)C2)c1C (stereo unspecified) | 3.61 µM (active)
7 | O=C(O)Cc1ccc(NCc2ccccc2Cl)cc1 | 4.81 µM (active)
8 | Cc1ccc(NC2CCCN(C(=O)c3ccnc(Cl)c3)C2)cc1C (stereo unspecified) | 3.32 µM (active)
9 | COc1ccc(N/N=C(\C#N)C(=N)N2CCCCC2)cc1 | 0.077 µM (active)

Molecular target: T2, Calpain-2 catalytic subunit (Sus scrofa, UniProt P43367)
T2 sequence (P43367 whole entry): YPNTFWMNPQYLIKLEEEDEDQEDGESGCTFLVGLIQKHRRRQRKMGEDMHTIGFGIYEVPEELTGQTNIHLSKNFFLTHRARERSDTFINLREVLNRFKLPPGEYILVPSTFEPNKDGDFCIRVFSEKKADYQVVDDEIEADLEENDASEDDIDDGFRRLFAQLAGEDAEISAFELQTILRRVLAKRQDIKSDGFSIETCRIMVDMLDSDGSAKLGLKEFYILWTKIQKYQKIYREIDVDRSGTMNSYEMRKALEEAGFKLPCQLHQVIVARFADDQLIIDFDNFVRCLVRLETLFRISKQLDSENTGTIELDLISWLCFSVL
Assay: pig calpain II inhibitor potency, dose response, biochemical, fluorogenic peptide substrate (AID 1420)
Assay type: functional

Row | Compound | IC50
10 | COc1ccc(Cn2nc(-c3ccccc3)c(N3CCCCC3)cc2=O)cc1 | 10.6 µM (not active)
11 | CCN1CCN(c2cc(C)c3cc(NC(S)=NCc4cccs4)ccc3n2)CC1 | 10 µM (not active)
12 | CCC(C(=O)NC1CCCC1)N(Cc1ccco1)C(=O)Cn1nnc(-c2ccc(C)cc2)n1 (stereo unspecified) | 16.3 µM (not active)
13 | Cc1oc2c(c1C(=O)Nc1cccc3ccccc13)CCCC2 | > 50 µM (not active)
14 | CC(=O)Nc1cc(C(=O)N2CCN(C)CC2)ccc1S(=O)(=O)c1ccc(C)cc1 | 0.796 µM (not active)
15 | O=C1c2ccccc2C(=O)N1CCc1csc(-c2cccc(Cl)c2)n1 | 3.44 µM (not active)
16 | CCOC(=O)CCNC(=O)Nc1ccc2nc(C)n(Cc3cccc(Cl)c3)c(=O)c2c1 | 6.83 µM (not active)
17 | CCCN(CCC)S(=O)(=O)c1ccc(NC(=O)COc2ccccc2)cc1 | 3.3 µM (not active)
18 | CC(C)(C)OC(=O)NCCCCCNC(=O)c1[nH]cnc1C(=O)N[C@@H](CCCCNC(=O)OC(C)(C)C)C(=O)OC(C)(C)C | 10.7 µM (not active)

Tested on: not listed separately
Assay: THP-1 cell cytotoxicity, dose response, cytotoxicity control for non-replicating M. tuberculosis project (AID 489025)
Assay type: functional

Row | Compound | CC50
19 | CCOC(=O)N1CCC(NS(=O)(=O)c2cc3c(cc2Cl)NC(=O)CO3)CC1 | 33.4 µM (active)

Molecular target: Genome polyprotein (dengue virus type 2, UniProt P29990)
Assay: Dengue-2 NS5 methyltransferase inhibitors, primary screen, biochemical, confirmation dose response (AID 588689)
Assay type: functional

Chain of Genome polyprotein (P29990 2492-3391 limits assumed): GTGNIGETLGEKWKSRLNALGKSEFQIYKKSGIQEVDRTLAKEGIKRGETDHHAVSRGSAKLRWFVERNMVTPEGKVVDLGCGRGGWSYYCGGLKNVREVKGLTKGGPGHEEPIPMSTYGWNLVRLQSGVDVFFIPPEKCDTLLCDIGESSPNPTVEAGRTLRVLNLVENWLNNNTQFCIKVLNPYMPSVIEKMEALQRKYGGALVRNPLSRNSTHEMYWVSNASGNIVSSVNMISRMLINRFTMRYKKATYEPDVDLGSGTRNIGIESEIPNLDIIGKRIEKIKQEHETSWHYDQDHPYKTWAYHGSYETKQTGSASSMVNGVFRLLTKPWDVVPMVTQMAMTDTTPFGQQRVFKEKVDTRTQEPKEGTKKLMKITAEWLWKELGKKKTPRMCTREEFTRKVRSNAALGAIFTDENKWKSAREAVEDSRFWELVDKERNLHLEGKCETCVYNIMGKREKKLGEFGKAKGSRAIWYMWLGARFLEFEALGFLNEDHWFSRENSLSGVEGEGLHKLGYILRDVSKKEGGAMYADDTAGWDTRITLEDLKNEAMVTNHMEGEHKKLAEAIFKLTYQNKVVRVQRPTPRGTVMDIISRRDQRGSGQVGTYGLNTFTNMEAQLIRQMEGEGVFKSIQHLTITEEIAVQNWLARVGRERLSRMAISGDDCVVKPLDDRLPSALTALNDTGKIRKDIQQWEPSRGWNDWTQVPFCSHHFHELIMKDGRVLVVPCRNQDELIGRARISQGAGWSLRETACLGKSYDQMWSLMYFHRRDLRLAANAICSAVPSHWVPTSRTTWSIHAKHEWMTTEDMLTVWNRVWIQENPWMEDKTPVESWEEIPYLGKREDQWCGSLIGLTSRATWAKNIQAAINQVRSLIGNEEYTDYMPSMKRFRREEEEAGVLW

Row | Compound | IC50
20 | COc1ccc(S(=O)(=O)Nc2nc3ccccc3nc2Nc2cccc(C(=O)O)c2)cc1 | 34.5 µM (active)
21 | Cc1ccc([C@@H]2CC=C(C(=O)O)[C@H](c3ccc(Br)cc3)N2S(=O)(=O)c2ccccc2C)cc1 | 34 µM (active)
